Drawing on ChEMBL document CHEMBL1909046, “DrugMatrix in vitro pharmacology data”, this text covers IC50 and Ki for 15 molecules.

A short description of experiment [1]: DRUGMATRIX: beta-Lactamase enzyme inhibition (substrate: Nitrocefin). More on the design: species or system Bacillus cereus. The note with it: Not Active = under 50% inhibition at 10 µM.
Experiment [2] has as its target Platelet-activating factor receptor (Homo sapiens, UniProt P25105). Type of experiment: tissue-based. Also: in other assays of this panel Not Active means under 50% inhibition at 10 µM.
In experiment [3] the target is T1, Vasoactive intestinal polypeptide receptor 1 (Homo sapiens, UniProt P32241). Also: in other assays of this panel Not Active means under 50% inhibition at 10 µM.
T1 sequence (P32241 whole entry): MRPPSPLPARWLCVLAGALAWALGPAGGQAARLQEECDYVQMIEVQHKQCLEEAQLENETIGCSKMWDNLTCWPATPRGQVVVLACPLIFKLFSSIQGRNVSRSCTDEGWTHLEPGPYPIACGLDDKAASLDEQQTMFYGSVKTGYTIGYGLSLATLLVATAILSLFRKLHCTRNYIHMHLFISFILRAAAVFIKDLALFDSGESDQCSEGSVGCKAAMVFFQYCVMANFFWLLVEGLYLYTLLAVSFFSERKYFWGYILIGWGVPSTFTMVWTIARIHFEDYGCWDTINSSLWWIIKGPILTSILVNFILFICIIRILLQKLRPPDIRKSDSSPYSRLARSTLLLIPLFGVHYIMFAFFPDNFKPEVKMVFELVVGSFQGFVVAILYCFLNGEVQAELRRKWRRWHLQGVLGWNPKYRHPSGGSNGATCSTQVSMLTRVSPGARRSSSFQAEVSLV
In kind it is cell membranes, Membrane. The note with it: ht-29.

Experiment [4] concerns the target T2, Polyunsaturated fatty acid lipoxygenase ALOX15 (Oryctolagus cuniculus, UniProt P12530).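 Also: inhibition of 15-lipoxygenase enzyme activity measured with linoleic acid as the substrate; in other assays of this panel Not Active means under 50% inhibition at 10 µM.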
T2 sequence (P12530 whole entry): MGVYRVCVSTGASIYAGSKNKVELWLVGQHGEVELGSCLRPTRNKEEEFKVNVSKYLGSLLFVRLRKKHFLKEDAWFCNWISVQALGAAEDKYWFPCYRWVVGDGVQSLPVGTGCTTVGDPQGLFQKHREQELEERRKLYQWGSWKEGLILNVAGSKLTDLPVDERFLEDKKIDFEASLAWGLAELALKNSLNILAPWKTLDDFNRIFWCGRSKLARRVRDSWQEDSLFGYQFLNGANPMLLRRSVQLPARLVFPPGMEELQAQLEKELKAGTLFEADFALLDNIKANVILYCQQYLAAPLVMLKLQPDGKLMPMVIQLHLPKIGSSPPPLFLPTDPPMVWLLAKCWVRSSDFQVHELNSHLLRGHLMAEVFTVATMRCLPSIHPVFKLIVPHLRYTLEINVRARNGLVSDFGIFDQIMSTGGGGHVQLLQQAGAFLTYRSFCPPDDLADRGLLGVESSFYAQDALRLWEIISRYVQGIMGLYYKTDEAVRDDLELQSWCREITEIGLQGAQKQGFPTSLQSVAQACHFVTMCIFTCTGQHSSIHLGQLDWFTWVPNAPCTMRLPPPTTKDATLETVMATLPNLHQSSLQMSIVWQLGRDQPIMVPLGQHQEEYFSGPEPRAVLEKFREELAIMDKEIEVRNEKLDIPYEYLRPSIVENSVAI
Briefly: biochemical. Type of experiment: tissue-based, Reticulocytes.

The next experiment concerns the target T3, Estrogen receptor (Homo sapiens, UniProt P03372). Also: in other assays of this panel Not Active means under 50% inhibition at 10 µM.
T3 sequence (P03372 whole entry): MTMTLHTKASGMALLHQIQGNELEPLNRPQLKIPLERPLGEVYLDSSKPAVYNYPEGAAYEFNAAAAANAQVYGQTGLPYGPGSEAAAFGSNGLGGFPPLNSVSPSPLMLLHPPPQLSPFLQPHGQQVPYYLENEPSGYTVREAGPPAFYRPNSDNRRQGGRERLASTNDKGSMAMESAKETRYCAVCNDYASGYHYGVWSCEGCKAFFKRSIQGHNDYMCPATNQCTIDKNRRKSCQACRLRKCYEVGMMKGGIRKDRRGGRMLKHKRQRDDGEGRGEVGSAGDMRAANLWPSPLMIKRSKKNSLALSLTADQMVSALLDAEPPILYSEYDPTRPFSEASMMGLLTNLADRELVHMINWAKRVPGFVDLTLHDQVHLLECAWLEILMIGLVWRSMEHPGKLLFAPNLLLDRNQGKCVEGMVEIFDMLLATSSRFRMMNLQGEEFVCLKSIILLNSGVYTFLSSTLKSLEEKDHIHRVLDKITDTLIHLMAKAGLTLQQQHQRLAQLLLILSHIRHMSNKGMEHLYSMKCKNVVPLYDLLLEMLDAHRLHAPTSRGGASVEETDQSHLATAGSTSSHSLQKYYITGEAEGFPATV
The conditions noted are these: sf9.

Experiment [5] concerns the target T4, 5-hydroxytryptamine receptor 2C (Homo sapiens, UniProt P28335).
T4 sequence (P28335 whole entry): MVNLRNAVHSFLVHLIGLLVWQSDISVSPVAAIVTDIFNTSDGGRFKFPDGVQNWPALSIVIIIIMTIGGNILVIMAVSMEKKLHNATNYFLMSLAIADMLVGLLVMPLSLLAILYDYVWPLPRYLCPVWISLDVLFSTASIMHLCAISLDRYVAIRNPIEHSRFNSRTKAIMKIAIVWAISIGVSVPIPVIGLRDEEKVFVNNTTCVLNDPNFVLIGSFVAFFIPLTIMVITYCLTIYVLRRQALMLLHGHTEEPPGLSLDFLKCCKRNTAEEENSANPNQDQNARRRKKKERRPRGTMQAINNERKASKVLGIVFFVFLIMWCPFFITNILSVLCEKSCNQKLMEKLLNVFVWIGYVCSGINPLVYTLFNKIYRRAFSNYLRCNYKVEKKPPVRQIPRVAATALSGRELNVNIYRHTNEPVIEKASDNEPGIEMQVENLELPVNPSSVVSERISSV
The experiment can be described thus: DRUGMATRIX: Serotonin (5-Hydroxytryptamine) 5-HT2C radioligand binding (ligand: [3H] Mesulergine). Type of experiment: cell membranes, CHO-K1, Membrane. The conditions noted are these: cho-k1; Not Active = under 50% inhibition at 10 µM.

Experiment [6] has as its target 5-hydroxytryptamine receptor 6 (Homo sapiens, UniProt P50406). Type of experiment: cell membranes, HeLa, Membrane. The note with it: hela. Also: in other assays of this panel Not Active means under 50% inhibition at 10 µM.

5-hydroxytryptamine receptor 6, sequence (P50406 whole entry): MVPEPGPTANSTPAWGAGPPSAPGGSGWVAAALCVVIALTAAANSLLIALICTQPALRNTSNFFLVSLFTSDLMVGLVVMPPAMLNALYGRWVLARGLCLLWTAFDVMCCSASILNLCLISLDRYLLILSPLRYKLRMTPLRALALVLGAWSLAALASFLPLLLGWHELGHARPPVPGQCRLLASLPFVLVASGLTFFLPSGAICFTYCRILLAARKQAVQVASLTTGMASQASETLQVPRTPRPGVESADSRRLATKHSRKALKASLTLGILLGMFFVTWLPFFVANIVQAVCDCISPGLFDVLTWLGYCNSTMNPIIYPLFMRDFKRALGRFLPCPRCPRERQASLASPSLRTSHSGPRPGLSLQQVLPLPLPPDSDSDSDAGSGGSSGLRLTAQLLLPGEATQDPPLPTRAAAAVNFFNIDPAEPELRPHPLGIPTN
Platelet-activating factor receptor, sequence (P25105 whole entry): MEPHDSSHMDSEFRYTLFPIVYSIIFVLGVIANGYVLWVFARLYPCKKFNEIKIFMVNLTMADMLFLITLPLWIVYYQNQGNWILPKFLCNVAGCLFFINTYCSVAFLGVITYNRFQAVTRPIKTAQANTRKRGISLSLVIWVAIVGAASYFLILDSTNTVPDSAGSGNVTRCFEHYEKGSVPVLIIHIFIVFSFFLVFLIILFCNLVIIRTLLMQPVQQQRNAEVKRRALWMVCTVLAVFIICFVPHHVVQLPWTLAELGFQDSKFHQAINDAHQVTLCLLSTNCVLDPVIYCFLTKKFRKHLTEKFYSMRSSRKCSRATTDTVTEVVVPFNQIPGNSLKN

Broadly, the IC50 is the midpoint of a concentration-inhibition curve. In the case of `COc1cccc2c1C(=O)c1c(O)c3c(c(O)c1C2=O)C[C@@](O)(C(=O)CO)C[C@@H]3O[C@H]1C[C@H](N)[C@@H](O)[C@H](C)O1` [EPIRUBICIN], the IC50 entry (in experiment [1]; in experiment [2]; in experiment [3]; in experiment [4] (reticulocytes); against Estrogen receptor; in experiment [5]) was “Not Active” throughout. Further, the IC50 result in experiment [6] was “Not Active”. Also, the Ki result in experiment [1] is listed as “Not Active”.
For the molecule `CC1(C)O[C@@H]2C[C@H]3[C@@H]4C[C@H](F)C5=CC(=O)C=C[C@]5(C)[C@H]4[C@@H](O)C[C@]3(C)[C@]2(C(=O)CO)O1` [FLUNISOLIDE], the IC50 entry (in experiment [1]; in experiment [2]; in experiment [3]; in experiment [4] (reticulocytes); at Estrogen receptor; in experiment [5]) was “Not Active” throughout. In addition, the IC50 result in experiment [6] is given as “Not Active”. In experiment [1], the Ki entry is “Not Active”.
Turning to `CC1(C)O[C@@H]2C[C@H]3[C@@H]4C[C@H](F)C5=CC(=O)C=C[C@]5(C)[C@@]4(F)[C@@H](O)C[C@]3(C)[C@]2(C(=O)CO)O1` [FLUOCINOLONE ACETONIDE], the IC50 result (in experiment [1]; in experiment [2]; in experiment [3]; in experiment [4] (reticulocytes); against Estrogen receptor; in experiment [5]) was “Not Active” each time. In addition, the IC50 result in experiment [6] is listed as “Not Active”. For the same molecule, the Ki entry in experiment [1] is reported as “Not Active”.
As to `CC1(C)O[C@@H]2C[C@H]3[C@@H]4C[C@H](F)C5=CC(=O)CC[C@]5(C)[C@H]4[C@@H](O)C[C@]3(C)[C@]2(C(=O)CO)O1` [FLURANDRENOLIDE], the IC50 result (in experiment [1]; in experiment [2]; in experiment [3]; in experiment [4] (reticulocytes); against Estrogen receptor; in experiment [5]) was “Not Active” in each case. Further, the IC50 entry in experiment [6] is on record as “Not Active”. Further, in experiment [1], the Ki entry was “Not Active”.
For `CN(C)c1ccc(C(=C2C=CC(=[N+](C)C)C=C2)c2ccc(N(C)C)cc2)cc1.[Cl-]` [GENTIAN VIOLET], the IC50 entry (in experiment [1]; in experiment [2]; in experiment [3]; in experiment [4] (reticulocytes); against Estrogen receptor; in experiment [5]) was “Not Active” throughout. In addition, the IC50 result in experiment [6] is “Not Active”. In addition, in experiment [1], the Ki result was “Not Active”.
In the case of `Cc1ccc(S(=O)(=O)NC(=O)NN2CC3CCCC3C2)cc1` (stereo not given) [GLICLAZIDE], the IC50 result (in experiment [1]; in experiment [2]; in experiment [3]; in experiment [4] (reticulocytes); against Estrogen receptor; in experiment [5]) was “Not Active” throughout. The IC50 entry in experiment [6] was “Not Active”. Also, the Ki result in experiment [1] is reported as “Not Active”.
With `CC(C)Cc1ccc(C(C)C(=O)O)cc1` (stereo not given) [IBUPROFEN], the IC50 entry (in experiment [1]; in experiment [2]; in experiment [3]; in experiment [4] (reticulocytes); at Estrogen receptor; in experiment [5]) was “Not Active” in each case. In experiment [6], the IC50 result was “Not Active”. In addition, the Ki entry in experiment [1] is reported as “Not Active”.
For the molecule `COc1ccc2c(c1)c(CC(=O)O)c(C)n2C(=O)c1ccc(Cl)cc1` [INDOMETHACIN], the IC50 result (in experiment [1]; in experiment [2]; in experiment [3]; in experiment [4] (reticulocytes); on Estrogen receptor; in experiment [5]) was “Not Active” each time. Also, the IC50 entry in experiment [6] is “Not Active”. The Ki result in experiment [1] was “Not Active”.
As to `CCc1c2c(nc3ccc(OC(=O)N4CCC(N5CCCCC5)CC4)cc13)-c1cc3c(c(=O)n1C2)COC(=O)[C@]3(O)CC` [IRINOTECAN], the IC50 result (in experiment [1]; in experiment [2]; in experiment [3]; in experiment [4] (reticulocytes); at Estrogen receptor; in experiment [5]) was “Not Active” in each case. For the same molecule, the IC50 result in experiment [6] is “Not Active”. Further, in experiment [1], the Ki result is on record as “Not Active”.
On to `CC(C(=O)O)c1cccc(C(=O)c2ccccc2)c1` (stereo not given) [KETOPROFEN], for which the IC50 entry (in experiment [1]; in experiment [2]; in experiment [3]; in experiment [4] (reticulocytes); against Estrogen receptor; in experiment [5]) was “Not Active” throughout. Further, the half-inhibitory concentration (IC50) entry in experiment [6] is on record as “Not Active”. Further, in experiment [1], the Ki entry is listed as “Not Active”.
As to `O=S(=O)([O-])CCS.[Na+]` [MESNA], the IC50 result (in experiment [1]; in experiment [2]; in experiment [3]; in experiment [4] (reticulocytes); on Estrogen receptor; in experiment [5]) was “Not Active” each time. In addition, the IC50 entry in experiment [6] is listed as “Not Active”. Moreover, the Ki result in experiment [1] was “Not Active”.
Turning to `CC(=O)Nc1cccc(O)c1` [METACETAMOL], the IC50 result (in experiment [1]; in experiment [2]; in experiment [3]; in experiment [4] (reticulocytes); on Estrogen receptor; in experiment [5]) was “Not Active” in each case. The IC50 result in experiment [6] is reported as “Not Active”. In experiment [1], the Ki entry is listed as “Not Active”.
On to `Cc1ncc([N+](=O)[O-])n1CCO` [METRONIDAZOLE], for which the IC50 result (in experiment [1]; in experiment [2]; in experiment [3]; in experiment [4] (reticulocytes); on Estrogen receptor; in experiment [5]) was “Not Active” in each case. Further, the IC50 entry in experiment [6] is given as “Not Active”. For the same molecule, the Ki result in experiment [1] is reported as “Not Active”.
Regarding `CC(C)(C(=O)c1cccnc1)c1cccnc1` [METYRAPONE], the IC50 entry (in experiment [1]; in experiment [2]; in experiment [3]; in experiment [4] (reticulocytes); at Estrogen receptor; in experiment [5]) was “Not Active” each time. Further, the IC50 entry in experiment [6] is recorded as “Not Active”. In experiment [1], the Ki entry is listed as “Not Active”.
For the molecule `Oc1ccc(OCc2ccccc2)cc1` [MONOBENZONE], the IC50 result is “Not Active” in experiment [1]; “Not Active” in experiment [2]; “Not Active” in experiment [3]; 4.89 µM in experiment [4] (read-out: IC50); “Not Active” on Estrogen receptor; “Not Active” in experiment [5]. Moreover, in experiment [6], the IC50 result is recorded as “Not Active”. Besides, the Ki entry in experiment [1] is “Not Active”.
